The source of these data is patent US9096630B2, “Amphiphilic compositions and methods for preparing and using same” (Yale University, priority 2009, dated 2015).

Data set [1] is described as follows: Critical micelle concentration and surface tension measurement (tensiometer, Pt plate). The data set is classed as physicochemical. The note with it: for CMC / γmin: room temperature; for CMC: DI water; for γmin: DI water (calibrated to 72.7±0.2 mN/m); for behavior in terms of CMC compared with Compound 1 / behavior in terms of interfacial tension (γ) reduction compared with Compound 1: photoisomers of Compound 1. How it is done: To characterize the behavior of the compounds of this invention as surfactants, surface tension can be plotted as a function of concentration and critical micelle concentrations (CMCs) of these surfactants can be calculated. In addition, the hydrophobic-lipophilic balance (HLB) of a surfactant can be calculated according to Griffin's Method. See e.g., Pasquali, R. C.; Taurozzi, M. P.; Bregni, C. Int. J. Pharm.
The CMC for compounds of the invention is determined using known methods in the art.
See, e.g., Pasquali, R. C.; Taurozzi, M. P.; Bregni, C. Int. J. Pharm. […] 14.

The nature of data set [2]: Ross-Miles foam test (ASTM D1173). The data set is classed as physicochemical. The settings on record: for foam enhancing and stabilizing capability compared with Compound 1: photoisomers of Compound 1.
The conditions of data set [3]: O-alkylglucoside reference, see Rybinski and Hill 1998; cited from earlier work.

Read-outs that look alike come from different tables or passages of the source.

Regarding `CCCC1CC(=O)C([C@@H]2O[C@H](CO)[C@@H](O)[C@H](O)[C@H]2O)=CC1CC` (stereo partly drawn) [Compound 2, 4-ethyl-5-propyl-2-((2S,3R,4R,5S,6R)-3,4,5-trihydroxy-6-(hydroxymethyl)tetrahydro-2H-pyran-2-yl)cyclohex-2-enone], in data set [1], the CMC is 52.2 mM and the γmin is 30 mN/m.
In the case of `CCCCCC1CC(=O)C([C@@H]2O[C@H](CO)[C@@H](O)[C@H](O)[C@H]2O)=CC1CCCC` (stereo partly drawn) [Compound 3, 4-butyl-5-pentyl-2-((2S,3R,4R,5S,6R)-3,4,5-trihydroxy-6-(hydroxymethyl)tetrahydro-2H-pyran-2-yl)cyclohex-2-enone], the “foaming properties when combined with SDS” value in data set [2] (combined with SDS as a 20% solution, compared with SDS alone) was “exceeded that of SDS alone”. Besides, the “foam height over 5 minutes when combined with SDS” value in data set [2] (combined with SDS as a 20% solution, over 5 minutes) was “remained unchanged”. The “excess foam after 5 minutes” value in data set [2] (surfactant alone, after 5 minutes, FIG. 2) is on record as “virtually no excess foam”. In addition, in data set [1] (comparison of CMC curves between series, FIG. 1), the “reduction in Interfacial Tension (IFT)” value is listed as “greatest reduction in Interfacial Tension (IFT)”. In data set [1] (estimated from point of inflection of CMC curve, FIG. 1), the “estimated CMC” value was “very low”. In data set [1], this compound had a CMC of 0.17 mM and a γmin of 22 mN/m.
With `CCCCCCCCCC/C=C\CC(=O)C[C@@H]1OC(CO)[C@@H](O)[C@H](O)C1O` (some centres unmarked) [Compound 48], the “foam enhancing and stabilizing capability compared with Compound 1” value in data set [2] was “substanitally the same behavior”. For the same compound, in data set [1], the “behavior in terms of CMC compared with Compound 1” value is “substanitally the same behavior” and the “behavior in terms of interfacial tension (γ) reduction compared with Compound 1” value was “substanitally the same behavior”.
As to `CCCCCCCCO[C@@H]1O[C@H](CO)[C@@H](O)[C@H](O)[C@H]1O` [Octyl-AG], in data set [3], the CMC is listed as 18.0 mM and the γmin is recorded as 24 mN/m.
For `CCCCCCCCCC/C=C/CC(=O)C[C@@H]1OC(CO)[C@@H](O)[C@H](O)C1O` (some centres unmarked) [Compound 47], the “foam enhancing and stabilizing capability compared with Compound 1” value in data set [2] is on record as “substanitally the same behavior”. Further, in data set [1], the “behavior in terms of CMC compared with Compound 1” value is “substanitally the same behavior” and the “behavior in terms of interfacial tension (γ) reduction compared with Compound 1” value was “substanitally the same behavior”.
In data set [1], `CCCCC/C=C/C(=O)C[C@@H]1O[C@H](CO)[C@@H](O)[C@H](O)[C@H]1O` [Compound 46, (E)-1-((2S,3R,4R,5S,6R)-3,4,5-trihydroxy-6-(hydroxy-methyl)tetrahydro-2H-pyran-2-yl)non-3-en-2-one] gave a CMC of 3.9 mM and a γmin of 24 mN/m.
On to `CCCCCCCCCCCCO[C@@H]1O[C@H](CO)[C@@H](O)[C@H](O)[C@H]1O` [Dodecyl-AG], for which, in data set [3], the CMC is given as 0.17 mM and the γmin was 24 mN/m.
As to `CCCCCCCCCCC/C=C/C(=O)C[C@@H]1O[C@H](CO)[C@@H](O)[C@H](O)[C@H]1O` [Compound 1, (E)-1-((2S,3R,4R,5S,6R)-3,4,5-trihydroxy-6-(hydroxymethyl)tetrahydro-2H-pyran-2-yl)pentadec-3-en-2-one], in data set [1], the CMC is listed as 0.1 mM and the γmin is given as 28 mN/m.
